# Laboratory results reported in patent publication US20200237731A1, “USE OF CLOXACILLIN TO INHIBIT/PREVENT BIOFILM FORMATION” (priority 2017, published 2020).
# Values joined by “and” are separate entries in the source; they are usually repeats but may differ in a detail not shown here. Equal values may be shown once.
# Experiments:
# [1] = tested on: clinical strains of Staphylococcus aureus; experiment: Antibiofilmogram / BioFilm Ring Test: biofilm minimum inhibitory concentration (MICb); type: cell-based; conditions: for MIC: Staphylococcus aureus; for MIC / MIC b: 4 h, BHI medium
# Description: To determine and measure the effect of cloxacillin on biofilm formation, specifically bacterial adhesion, the first step in biofilm formation, Staphylococcus aureus strains S14 and S39 were incubated in the wells of a 96-well microplate in the presence of varying concentrations of cloxacillin. The concentrations tested ranged from 0.25 μg/mL to 32 μg/mL cloxacillin. This test is called, by BioFilm Control, an Antibiofilmogram®. The inoculum of bacteria was 4·10^6 bacteria/mL, in 200 μL brain heart infusion (BHI) medium, in the presence of magnetic microbeads (Toner 4, product code TON004) at a concentration of 2 μL per 200 μL, i.e. 10 μL/mL).
# The microplate was incubated for 4 hat 37° C., then covered with 120 μL of contrast liquid (Contrast liquid; product code LIC001) and placed for 1 minute on a magnet block (product code BKTMB) designed so that each mini-magnet is centered with respect to the 96 wells. The microplate was then placed on a scanner and the image was acquired and analyzed by the BFCE3 software which quantifies the aggregation of the magnetic microbeads in the center of the wells and provides a biofilm formation index (BFI) value. A BFI value of 20, or close to 20 corresponds to maximum aggregation, therefore no biofilm formation, and therefore cloxacillin anti-adhesion efficacy. […] All intermediate values, allowing a quantitative measurement of the efficacy of cloxacillin are possible.
# The experimental procedure and protocol were as described above.
# The measurement of the MICb (determination of the biofilm minimum inhibitory concentration), using the BioFilm Ring ^Test® was performed in BHI medium. The conversion in mg/kg. The results are summarized in Table 1 according to the strains tested.
# [2] = tested on: Staphylococcus aureus strain S14; experiment: Infected skin wound healing model in mice; type: in vivo, C57BL/6 mice
# Description: The objective of these trials was to test the efficacy of cloxacillin, at selected doses, in an in vivo model of mouse skin wound infection with strains of Staphylococcus aureus. The in vivo efficacy of specific doses of cloxacillin, derived from the in vitro MIC and MICb doses, was determined by measuring bacterial load (established as a biofilm) at 12 h, Day 5 and Day 11 post-infection, and by measuring wound healing at Day 5 and Day 11 post-infection (as a wound healing score).
# In this example, the mice used were 7-week-old female C57BL/6 mice weighing between 20 and 22 g from Janvier Labs, Le Genest St Isle, 53941 St Berthevin, France. The number of mice used was 5 per condition tested.
# The concentration of S. aureus was adjusted in PBS to give a concentration of 10^6 CFU in 10 μL (10^8 CFU/mL). The mice, shaved on their backs, were anaesthetized with isoflurane gas and then 4 incisions were made on each side of the spine, defining 2 areas. In each mouse, only one of the areas was infected by subcutaneous injection of 10 μL of S. aureus solution, with the contralateral area serving as the uninfected control.
# To test the effect of cloxacillin, 3 groups of mice received, 30 minutes pre-infection, a “preventive” treatment of 5 mg/kg cloxacillin (for mice subsequently receiving cloxacillin at 3 mg/kg) or 30 mg/kg cloxacillin (for mice subsequently receiving cloxacillin at 15 mg/kg) or sterile saline intraperitoneally. These doses were determined in an in-house PK/PD study.
# The mice were then treated every two hours after the first preventive treatment for 10 hours with cloxacillin at 3 mg/kg or 15 mg/kg or saline. These doses were pre-determined to simulate blood levels between the planktonic MIC and the biofilm MIC of strain S14.
# Three groups of mice were used, a first group being sacrificed at t+12 h after infection to measure the bacterial load. A second group was treated identically and sacrificed 5 days after infection and a third group, treated identically, was sacrificed 11 days after infection. Each day, a healing score is established on the animals, and on the sacrificed animals, a count of the bacteria installed is made (at D5 and D11). The score is established as follows, assigning a value between 0 and 3.
# The skin at the wounds is cut, rinsed in PBS to remove non-adhered bacteria and then the tissue is homogenized in Precellys tubes using glass beads. The resulting homogenate was diluted serially, and different dilutions were spread on TSA media plates and cultured overnight at 37° C. Colonies (CFU) were quantified for each dilution and the bacterial load at the wound site was determined.
compound,measurement,setting,value
Cc1onc(-c2ccccc2Cl)c1C(=O)N[C@@H]1C(=O)N2[C@@H]1SC(C)(C)[C@@H]2C(=O)O [cloxacillin],MIC,[1]; strain S02,2 µg/mL
same,MIC,[1]; strain S04,4 µg/mL
same,MIC,[1]; strain S08,2 µg/mL
same,MIC,[1]; strain S11,4 µg/mL
same,MIC,[1]; strain S14,2 µg/mL
same,MIC,[1]; strain S16,4 µg/mL
same,MIC,[1]; strain S19,2 µg/mL
same,MIC,[1]; strain S21,4 µg/mL
same,MIC,[1]; strain S22,4 µg/mL
same,MIC,[1]; strain S26,4 µg/mL
same,MIC,[1]; strain S27,4 µg/mL
same,MIC,[1]; strain S31,4 µg/mL
same,MIC,[1]; strain S34,8 µg/mL
same,MIC,[1]; strain S38,16 µg/mL
same,MIC,[1]; strain S39,8 µg/mL
same,MIC,[1]; strain S40,4 µg/mL
same,MIC,[1]; strain S43,4 µg/mL
same,MIC,[1]; strain S44,4 µg/mL
same,MIC,[1]; strain S46,2 µg/mL
same,MIC,[1]; strain S47,2 µg/mL
same,MIC,[1]; strain S51,4 µg/mL
same,MIC,[1]; strain S58,16 µg/mL
same,MIC,[1]; strain S62,8 µg/mL
same,MIC,[1]; strain S63,8 µg/mL
same,MIC,[1]; strain S74,4 µg/mL
same,MIC,[1]; strain S83,16 µg/mL
same,mean MICb,"[1]; panel of 26 strains, standard deviation 4.2 μg/mL",5.5 µg/mL
same,MIC b,[1]; strain S02,2 µg/mL
same,MIC b,[1]; strain S14,2 µg/mL
same,MIC b,[1]; strain S38,16 µg/mL
same,MIC b,[1]; strain S39,6 µg/mL and 4 to 6 µg/mL and 4 µg/mL
same,MIC b,[1]; strain S58,16 µg/mL
same,MIC b,[1]; strain S83,16 µg/mL
same,wound-healing score,"[2]; infected wounds, strain S14, MIC dose (3 mg/kg)",absence of cloxacillin effect on wound healing
same,wound-healing score,"[2]; infected wounds, strain S14, MICb dose (15 mg/kg), up to day 6",decreases more rapidly
same,decrease of bacterial load at the wound site vs control,"[2]; strain S14, MICb dose (15 mg/kg), 12 h post-infection",~3 logio
same,wound-healing score,[2]; uninfected wounds,does not have a per se effect on wound healing
